Test results as given in patent US5443986A, “Enzymatic analysis using substrates that yield fluorescent precipitates” (Molecular Probes, Inc., priority 1993, dated 1995).

Legend:
alkaline phosphatase = alkaline phosphatase (Bos taurus, UniProt P19111); experiment: Detection of enzyme on non-denaturing gels after electrophoresis; assay type: biochemical
Experimental: 1 ). Detecting enzymes on native gels using precipitating substrates. Gel electrophoresis is a common method for identifying proteins in fluids and tissue homogenates. In native gel electrophoresis, the proteins retain their activity during the process of separation and thus can hypothetically be identified by activity assays. By incubating the native gel with various precipitating substrates specific for the analyte enzyme, one can identify whether the enzyme is present in the loaded sample. These methods are used for investigating the expression of both endogenous enzymes and enzyme-fusion proteins and for the detection of the enzyme in samples suspected of containing the enzyme. A protocol commonly used in these experiments is as follows:
1. The enzyme-containing sample is mixed with the sample buffer (0.075M TRIS-HCl in 50% glycerol, pH 6.8) to a concentration that is appropriate for loading the enzyme. The sample is loaded onto a 4-20% gradient acrylamide gel. The gel is run at 30 mA for approximately 30 minutes.
2. The gel is incubated in a buffer that is optimal for the enzyme being detected and that contains 1 mM of the substrate. For alkaline phosphatase the buffer used is 100 mM MOPS, 50 mM NaCl, 1 mM MgCl2, 0.1 mM ZnCl2, pH 7.5. The appearance of fluorescent bands is monitored using a hand-held ultraviolet lamp.
2). Comparing the sensitivity of enzyme detection using precipitating substrates versus standard Coomassie Blue detection. Decreasing amounts of alkaline phosphatase are loaded into the lanes of two gels. The amount of alkaline phosphatase loaded into each lane varies from […]. After electrophoresis, one gel is developed for visualization using standard Coomassie Blue-staining procedures; the other by incubation with 1 mM 8e as described above. The minimum detectable quantity of alkaline phosphatase using standard Coomassie Blue-staining methods is 1 μg. After incubation with 8e for 30 minutes, 1 ng of alkaline phosphatase is clearly visible using a handheld UV-lamp. After approximately 20 hours incubation, 0.25 ng of alkaline phosphatase can be visibly detected without any signal enhancement. These experiments indicate that incubation with the precipitating substrate provides a method for enzyme detection that is 4000 times more sensitive than standard Coomassie Blue-staining methods. […] Multiple proteins or extracts can be run in a single lane with only the enzyme specific for the synthetic substrate being detected by the staining.

HEp-2 cells = experiment: Enzyme-mediated immunohistochemical detection (SLE kit) on fixed HEp-2 cells; assay type: cell-based, human; conditions: 30 minute incubation, 100 mM MOPS pH 7.5, biotinylated alkaline phosphatase
Experimental: 1 ). Cells and Detection Kit. […] The kit includes slides containing wells of fixed HEp-2 cells (human epithelial cells) and a positive control consisting of anti-DNA antibodies isolated from humans with the disease. Normally, the slides are incubated with sera from patients and then probed with fluorescein-conjugated anti-human antibodies. Using this method, the nuclei of those cells that have been incubated with SLE-positive sera appear to have typical morphology that is identified by their green fluorescence using standard fluorescence microscopy whereas the negative controls have no fluorescence.
2). Sample Preparation. A four-step incubation protocol is used to prepare the slides. All reagents are diluted in 1% bovine serum albumin (BSA) in TRIS-buffered saline, pH 7.5 (TBS; 100 mM NaCl, 100 mM TRIS). Each incubation is 1/2 hour. Slides are washed three times with TBS between incubations. A typical procedure consists of the following steps:
1. The wells are incubated with either SLE-positive or -negative human sera (provided in the kit).
2. The wells are incubated with biotinylated goat anti-human ([…]).
3. The wells are incubated with streptavidin (50 μg/mL), a reagent that has four binding sites for biotin. Excess binding sites are available for binding the next reagent.
4. The wells are incubated with a biotinylated enzyme that will remove BLOCK from the subject substrates. […]

Sequence of alkaline phosphatase (P19111 20-506 limits assumed): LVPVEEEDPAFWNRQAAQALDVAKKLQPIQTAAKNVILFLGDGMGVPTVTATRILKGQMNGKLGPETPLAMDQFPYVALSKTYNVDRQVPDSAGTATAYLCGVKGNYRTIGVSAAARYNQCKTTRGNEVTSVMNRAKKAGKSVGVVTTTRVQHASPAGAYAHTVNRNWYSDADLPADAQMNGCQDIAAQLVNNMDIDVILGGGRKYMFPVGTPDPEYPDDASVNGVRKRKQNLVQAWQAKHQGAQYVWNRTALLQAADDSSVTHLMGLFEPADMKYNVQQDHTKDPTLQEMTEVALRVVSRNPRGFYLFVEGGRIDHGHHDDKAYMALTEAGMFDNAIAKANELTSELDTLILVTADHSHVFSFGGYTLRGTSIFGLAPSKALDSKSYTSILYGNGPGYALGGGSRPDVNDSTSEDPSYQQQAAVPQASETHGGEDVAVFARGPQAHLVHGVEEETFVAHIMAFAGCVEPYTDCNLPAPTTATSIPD

Compound: O=c1[nH]c(-c2cc(Cl)ccc2OP(=O)(O)O)nc2ccc(Cl)cc12 [8e, Ammonium 2-(5'-chloro-2'-phosphoryloxyphenyl)-6-chloro-4-(3H)-quinazolinone]
- quantity of alkaline phosphatase clearly visible on the gel (alkaline phosphatase; 1 mM substrate, 30 minutes incubation, handheld UV-lamp): 1 ng
- quantity of alkaline phosphatase visibly detected on the gel (alkaline phosphatase; 1 mM substrate, approximately 20 hours incubation, no signal enhancement): 0.25 ng
- sensitivity relative to standard Coomassie Blue-staining methods (alkaline phosphatase; enzyme detection on gel): 4000 times
- staining of negative control lanes (alkaline phosphatase; lanes loaded with 2-μg bovine serum albumin or 2-μg β-galactosidase): does not stain lanes
- staining of cells incubated with SLE-positive sera (HEp-2 cells): brightly fluorescent nuclei
- staining of wells incubated with negative sera (HEp-2 cells): No signal is detected
